The record followed here is the supplement of paper PMC8967900.
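Also: ALL cell lines in 384-well plates, five doses spanning 10,000-fold, each plate scaled between vehicle and 100 µmol/L benzalkonium chloride controls, sDSS an adapted area-under-curve metric.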

The test system of the first assay is TMD5. Kind of assay: selective drug sensitivity score (sDSS, relative to normal bone marrow) (sDSS (score)); higher = more potent and effective on the cell line relative to normal bone marrow cells. The conditions noted are these: 72 h.
`Cc1cc(C(C)Nc2ccccc2)c2nc(N3CCOCC3)cc(=O)n2c1` (stereo not given) [TGX-221] (top concentration 10000 nM): the “selective drug sensitivity score” value is -1.64.
On the same count and under the same terms, the figure for `Cc1nc(-c2cn3c(n2)-c2ccc(-c4cnn(C(C)(C)C(N)=O)c4)cc2OCC3)n(C(C)C)n1` [Taselisib] (top concentration 1000 nM) is -4.3; for `O=C(Nc1cccc(Nc2ncc(Br)c(NCCc3cnc[nH]3)n2)c1)N1CCCC1` [BX-912] (top concentration 10000 nM) it is 2.06; for `NS(=O)(=O)OC[C@@H]1C[C@@H](n2ccc3c(N[C@H]4CCc5ccccc54)ncnc32)C[C@@H]1O` [Pevonedistat] (top concentration 10000 nM) it is 6.7.
Same read-out and setting: the figure for `N#Cc1ccc(COC[C@H]2O[C@@H](n3c(NCc4ccc(Cl)c(Cl)c4)nc4c(N)ncnc43)[C@H](O)[C@@H]2O)cc1` (top concentration 10000 nM) is -1.38; for `C=C1C[C@@H]2[C@H](CC[C@]3(C)C(=O)CC[C@@H]23)[C@@]2(C)C=CC(=O)C=C12` [Exemestane] (top concentration 10000 nM) it is -0.1; for `NCC(=O)Nc1ccc(-n2nc(C(F)(F)F)cc2-c2ccc3c(ccc4ccccc43)c2)cc1` (top concentration 25000 nM) it is -0.2.

The next assay has as its system RPMI-8402. The assay is described as above. The conditions noted are these: 72 h.
Turning to `Cc1cc(C(C)Nc2ccccc2)c2nc(N3CCOCC3)cc(=O)n2c1` (stereo not given) [TGX-221] (top concentration 10000 nM), the “selective drug sensitivity score” value was -0.04.
Same read-out and setting: for `Cc1nc(-c2cn3c(n2)-c2ccc(-c4cnn(C(C)(C)C(N)=O)c4)cc2OCC3)n(C(C)C)n1` [Taselisib] (top concentration 1000 nM) the value was 1.5; for `O=C(Nc1cccc(Nc2ncc(Br)c(NCCc3cnc[nH]3)n2)c1)N1CCCC1` [BX-912] (top concentration 10000 nM), 3.36; for `NS(=O)(=O)OC[C@@H]1C[C@@H](n2ccc3c(N[C@H]4CCc5ccccc54)ncnc32)C[C@@H]1O` [Pevonedistat] (top concentration 10000 nM), 16.2.
On the same count and under the same terms, the figure for `N#Cc1ccc(COC[C@H]2O[C@@H](n3c(NCc4ccc(Cl)c(Cl)c4)nc4c(N)ncnc43)[C@H](O)[C@@H]2O)cc1` (top concentration 10000 nM) is 7.92; for `C=C1C[C@@H]2[C@H](CC[C@]3(C)C(=O)CC[C@@H]23)[C@@]2(C)C=CC(=O)C=C12` [Exemestane] (top concentration 10000 nM) it is -1.9; for `NCC(=O)Nc1ccc(-n2nc(C(F)(F)F)cc2-c2ccc3c(ccc4ccccc43)c2)cc1` (top concentration 25000 nM) it is 13.

In the next assay the test system is PEER. The description is as above. As to conditions: 72 h.
For the molecule `Cc1cc(C(C)Nc2ccccc2)c2nc(N3CCOCC3)cc(=O)n2c1` (stereo not given) [TGX-221] (top concentration 10000 nM), the “selective drug sensitivity score” value is -0.74.
Same read-out and setting: the figure for `Cc1nc(-c2cn3c(n2)-c2ccc(-c4cnn(C(C)(C)C(N)=O)c4)cc2OCC3)n(C(C)C)n1` [Taselisib] (top concentration 1000 nM) is -4.3.
Take `O=C(Nc1cccc(Nc2ncc(Br)c(NCCc3cnc[nH]3)n2)c1)N1CCCC1` [BX-912] (top concentration 10000 nM): the “selective drug sensitivity score” value was 10.6.
In the case of `NS(=O)(=O)OC[C@@H]1C[C@@H](n2ccc3c(N[C@H]4CCc5ccccc54)ncnc32)C[C@@H]1O` [Pevonedistat] (top concentration 10000 nM), the “selective drug sensitivity score” value was 19.7.
On the same count and under the same terms, for `N#Cc1ccc(COC[C@H]2O[C@@H](n3c(NCc4ccc(Cl)c(Cl)c4)nc4c(N)ncnc43)[C@H](O)[C@@H]2O)cc1` (top concentration 10000 nM) the value was 10.7; for `C=C1C[C@@H]2[C@H](CC[C@]3(C)C(=O)CC[C@@H]23)[C@@]2(C)C=CC(=O)C=C12` [Exemestane] (top concentration 10000 nM), -1.5.
On the same count and under the same terms, the figure for `NCC(=O)Nc1ccc(-n2nc(C(F)(F)F)cc2-c2ccc3c(ccc4ccccc43)c2)cc1` (top concentration 25000 nM) is 9.9.

The next assay relates to KASUMI-2. The assay is described as above. As to conditions: 72 h.
With `Cc1cc(C(C)Nc2ccccc2)c2nc(N3CCOCC3)cc(=O)n2c1` (stereo not given) [TGX-221] (top concentration 10000 nM), the “selective drug sensitivity score” value was -1.64.
`Cc1nc(-c2cn3c(n2)-c2ccc(-c4cnn(C(C)(C)C(N)=O)c4)cc2OCC3)n(C(C)C)n1` [Taselisib] (top concentration 1000 nM): the “selective drug sensitivity score” value amounted to 4.
With `O=C(Nc1cccc(Nc2ncc(Br)c(NCCc3cnc[nH]3)n2)c1)N1CCCC1` [BX-912] (top concentration 10000 nM), the “selective drug sensitivity score” value worked out at 5.86.
Still for that read-out and setting: the figure for `NS(=O)(=O)OC[C@@H]1C[C@@H](n2ccc3c(N[C@H]4CCc5ccccc54)ncnc32)C[C@@H]1O` [Pevonedistat] (top concentration 10000 nM) is 6.3.
For `N#Cc1ccc(COC[C@H]2O[C@@H](n3c(NCc4ccc(Cl)c(Cl)c4)nc4c(N)ncnc43)[C@H](O)[C@@H]2O)cc1` (top concentration 10000 nM), the “selective drug sensitivity score” value was -0.08.
Same read-out and setting: the figure for `C=C1C[C@@H]2[C@H](CC[C@]3(C)C(=O)CC[C@@H]23)[C@@]2(C)C=CC(=O)C=C12` [Exemestane] (top concentration 10000 nM) is 2.3; for `NCC(=O)Nc1ccc(-n2nc(C(F)(F)F)cc2-c2ccc3c(ccc4ccccc43)c2)cc1` (top concentration 25000 nM) it is 0.1.

The test system of the next assay is NALM-16. Described as above. The conditions noted are these: 72 h.
Regarding `Cc1cc(C(C)Nc2ccccc2)c2nc(N3CCOCC3)cc(=O)n2c1` (stereo not given) [TGX-221] (top concentration 10000 nM), the “selective drug sensitivity score” value is -1.64.
Still for that read-out and setting: the figure for `Cc1nc(-c2cn3c(n2)-c2ccc(-c4cnn(C(C)(C)C(N)=O)c4)cc2OCC3)n(C(C)C)n1` [Taselisib] (top concentration 1000 nM) is 4.2.
Same read-out and setting: for `O=C(Nc1cccc(Nc2ncc(Br)c(NCCc3cnc[nH]3)n2)c1)N1CCCC1` [BX-912] (top concentration 10000 nM) the value was -0.14; for `NS(=O)(=O)OC[C@@H]1C[C@@H](n2ccc3c(N[C@H]4CCc5ccccc54)ncnc32)C[C@@H]1O` [Pevonedistat] (top concentration 10000 nM), 4.1.
Same read-out and setting: for `N#Cc1ccc(COC[C@H]2O[C@@H](n3c(NCc4ccc(Cl)c(Cl)c4)nc4c(N)ncnc43)[C@H](O)[C@@H]2O)cc1` (top concentration 10000 nM) the value was -0.88; for `C=C1C[C@@H]2[C@H](CC[C@]3(C)C(=O)CC[C@@H]23)[C@@]2(C)C=CC(=O)C=C12` [Exemestane] (top concentration 10000 nM), -1.9.
On to `NCC(=O)Nc1ccc(-n2nc(C(F)(F)F)cc2-c2ccc3c(ccc4ccccc43)c2)cc1` (top concentration 25000 nM), for which the “selective drug sensitivity score” value came to 5.4.
